What was measured:
[1] = biological target: T1, alkaline phosphatase (calf intestine; Biozyme) (Bos taurus, UniProt P19111); test: Total dephosphorylation, chemiluminescence decay (Example XIII); format: biochemical; settings: 30° C., carbonate/bicarbonate buffer
T1 construct: purchased Biozyme; host or cells: calf intestine

alkaline phosphatase = alkaline phosphatase (Bos taurus, UniProt P19111); test: Chemiluminescent signal and signal:background with enhancer polymers (Example XVII); format: biochemical
Chain of alkaline phosphatase (P19111 20-506 limits assumed): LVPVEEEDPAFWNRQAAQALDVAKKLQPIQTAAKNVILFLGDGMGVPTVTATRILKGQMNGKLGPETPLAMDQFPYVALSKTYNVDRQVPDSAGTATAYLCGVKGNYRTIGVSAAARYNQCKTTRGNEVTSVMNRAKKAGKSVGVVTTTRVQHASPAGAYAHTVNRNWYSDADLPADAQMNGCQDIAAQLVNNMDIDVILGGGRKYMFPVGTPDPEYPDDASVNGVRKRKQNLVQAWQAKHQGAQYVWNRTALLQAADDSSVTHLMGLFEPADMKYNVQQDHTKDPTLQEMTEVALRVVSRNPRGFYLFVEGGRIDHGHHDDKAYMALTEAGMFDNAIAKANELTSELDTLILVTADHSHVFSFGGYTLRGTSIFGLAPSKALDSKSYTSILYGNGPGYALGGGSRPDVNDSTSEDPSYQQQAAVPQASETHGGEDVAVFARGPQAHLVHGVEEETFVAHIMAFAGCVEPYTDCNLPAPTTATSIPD
In short: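 Bovine alkaline phosphatase was added to a final 2.83×10^-13 M in 1,2-dioxetane substrate solution (0.4 mM before enzyme addition). Background luminescence was read before enzyme addition and chemiluminescence at 5 and 20 min, giving signal and signal:background ratio.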

T1 sequence (P19111 20-506 limits assumed): as above

**Q.** Which “Total Decay Time” value [1] does the source give for `COC1(c2cccc(OP(=O)(O)O)c2)OOC12C1CC3CC2CC(Cl)(C3)C1` (stereo not drawn) [Cl-AMPPD, disodium 3-(4-methoxyspiro-[1,2-dioxetane-3,2'-(5'-chloro)tricyclo[3.3.1.1^3,7]decan]-4-yl) phenyl phosphate] here?
**A.** Its value is 15 min.

**Q.** And the “Decay Rate I” value ([1]; RLU's per minute)?
**A.** The value was 1.2 RLU's per minute.

**Q.** And the “Decay Rate II” value ([1]; RLU's per minute)?
**A.** The value was 5.5 RLU's per minute.

**Q.** What about the S/N (alkaline phosphatase; polymer BAEDM, 5 min) of the same compound?
**A.** Its S/N is 102.2.

**Q.** And the SIGNAL (alkaline phosphatase; polymer BAEDM, 5 min)?
**A.** The SIGNAL was 9086.9.

**Q.** And the S/N (alkaline phosphatase; polymer BAEDM, 20 min)?
**A.** The S/N was 193.3.

**Q.** And the SIGNAL (alkaline phosphatase; polymer BAEDM, 20 min)?
**A.** Its SIGNAL is 17185.4.

**Q.** And the S/N (alkaline phosphatase; polymer BAEDM, time 0)?
**A.** The S/N was 1.0.

**Q.** What about the SIGNAL (alkaline phosphatase; polymer BAEDM, time 0 (background, before enzyme)) of the same compound?
**A.** Its SIGNAL is 88.9.

**Q.** And the S/N (alkaline phosphatase; polymer DAA TMQ, 5 min)?
**A.** The S/N was 125.1.

**Q.** What about the SIGNAL (alkaline phosphatase; polymer DAA TMQ, 5 min) of the same compound?
**A.** Its SIGNAL is 10328.7.

**Q.** And the S/N (alkaline phosphatase; polymer DAA TMQ, 20 min)?
**A.** Its S/N is 159.9.

**Q.** What about the SIGNAL (alkaline phosphatase; polymer DAA TMQ, 20 min) of the same compound?
**A.** Its SIGNAL is 13204.2.

**Q.** And the S/N (alkaline phosphatase; polymer DAA TMQ, time 0)?
**A.** The S/N was 1.0.

**Q.** And the SIGNAL (alkaline phosphatase; polymer DAA TMQ, time 0 (background, before enzyme))?
**A.** Its SIGNAL is 82.6.

**Q.** And the S/N (alkaline phosphatase; polymer DMQ TEQ, 5 min)?
**A.** Its S/N is 514.6.

**Q.** And the SIGNAL (alkaline phosphatase; polymer DMQ TEQ, 5 min)?
**A.** Its SIGNAL is 39712.8.

**Q.** And the S/N (alkaline phosphatase; polymer DMQ TEQ, 20 min)?
**A.** Its S/N is 747.2.

**Q.** What about the SIGNAL (alkaline phosphatase; polymer DMQ TEQ, 20 min) of the same compound?
**A.** Its SIGNAL is 57658.0.

**Q.** What about the S/N (alkaline phosphatase; polymer DMQ TEQ, time 0) of the same compound?
**A.** The S/N was 1.0.

**Q.** What about the SIGNAL (alkaline phosphatase; polymer DMQ TEQ, time 0 (background, before enzyme)) of the same compound?
**A.** The SIGNAL was 77.2.

**Q.** What about the SIGNAL (alkaline phosphatase; polymer EMERALD (sapphire and fluorescein), time 0 (background, before enzyme)) of the same compound?
**A.** Its SIGNAL is 3434.0.

**Q.** What about the S/N (alkaline phosphatase; polymer EMERALD, 5 min) of the same compound?
**A.** The S/N was 583.2.

**Q.** And the SIGNAL (alkaline phosphatase; polymer EMERALD, 5 min)?
**A.** Its SIGNAL is 400510.8.

**Q.** What about the S/N (alkaline phosphatase; polymer EMERALD, 20 min) of the same compound?
**A.** Its S/N is 964.0.

**Q.** And the SIGNAL (alkaline phosphatase; polymer EMERALD, 20 min)?
**A.** Its SIGNAL is 662054.4.

**Q.** What about the S/N (alkaline phosphatase; polymer EMERALD, time 0) of the same compound?
**A.** The S/N was 1.0.

**Q.** And the S/N (alkaline phosphatase; polymer MPB, 5 min)?
**A.** Its S/N is 257.8.

**Q.** And the SIGNAL (alkaline phosphatase; polymer MPB, 5 min)?
**A.** Its SIGNAL is 22170.5.

**Q.** What about the S/N (alkaline phosphatase; polymer MPB, 20 min) of the same compound?
**A.** Its S/N is 306.5.

**Q.** And the SIGNAL (alkaline phosphatase; polymer MPB, 20 min)?
**A.** Its SIGNAL is 29133.9.

**Q.** What about the S/N (alkaline phosphatase; polymer MPB, time 0) of the same compound?
**A.** Its S/N is 1.0.

**Q.** And the SIGNAL (alkaline phosphatase; polymer MPB, time 0 (background, before enzyme))?
**A.** The SIGNAL was 86.0.

**Q.** And the S/N (alkaline phosphatase; polymer NONE, 5 min)?
**A.** Its S/N is 47.9.

**Q.** What about the SIGNAL (alkaline phosphatase; polymer NONE, 5 min, enzyme 2.83×10^-13 M) of the same compound?
**A.** The SIGNAL was 4083.6.

**Q.** What about the S/N (alkaline phosphatase; polymer NONE, 20 min) of the same compound?
**A.** The S/N was 52.3.

**Q.** And the SIGNAL (alkaline phosphatase; polymer NONE, 20 min, enzyme 2.83×10^-13 M)?
**A.** The SIGNAL was 4460.9.

**Q.** And the S/N (alkaline phosphatase; polymer NONE, time 0)?
**A.** The S/N was 1.0.

**Q.** And the SIGNAL (alkaline phosphatase; polymer NONE, time 0 (background, before enzyme))?
**A.** The SIGNAL was 85.3.

**Q.** And the S/N (alkaline phosphatase; polymer S/TMQ(1:2), 5 min)?
**A.** The S/N was 46.7.

**Q.** What about the SIGNAL (alkaline phosphatase; polymer S/TMQ(1:2), 5 min) of the same compound?
**A.** The SIGNAL was 3121.4.

**Q.** What about the S/N (alkaline phosphatase; polymer S/TMQ(1:2), 20 min) of the same compound?
**A.** Its S/N is 100.2.

**Q.** What about the SIGNAL (alkaline phosphatase; polymer S/TMQ(1:2), 20 min) of the same compound?
**A.** The SIGNAL was 6696.9.

**Q.** And the S/N (alkaline phosphatase; polymer S/TMQ(1:2), time 0)?
**A.** Its S/N is 1.0.

**Q.** And the SIGNAL (alkaline phosphatase; polymer S/TMQ(1:2), time 0 (background, before enzyme))?
**A.** Its SIGNAL is 66.8.

**Q.** And the S/N (alkaline phosphatase; polymer S/TMQ(1:4), 5 min)?
**A.** The S/N was 93.9.

**Q.** And the SIGNAL (alkaline phosphatase; polymer S/TMQ(1:4), 5 min)?
**A.** The SIGNAL was 5631.2.

**Q.** And the S/N (alkaline phosphatase; polymer S/TMQ(1:4), 20 min)?
**A.** The S/N was 165.0.

**Q.** And the SIGNAL (alkaline phosphatase; polymer S/TMQ(1:4), 20 min)?
**A.** Its SIGNAL is 9957.4.

**Q.** What about the S/N (alkaline phosphatase; polymer S/TMQ(1:4), time 0) of the same compound?
**A.** The S/N was 1.0.

**Q.** And the SIGNAL (alkaline phosphatase; polymer S/TMQ(1:4), time 0 (background, before enzyme))?
**A.** The SIGNAL was 60.0.

**Q.** And the SIGNAL (alkaline phosphatase; polymer SAPPHIRE (BDMQ), time 0 (background, before enzyme))?
**A.** Its SIGNAL is 296.0.

**Q.** And the S/N (alkaline phosphatase; polymer SAPPHIRE, 5 min)?
**A.** Its S/N is 371.6.

**Q.** And the SIGNAL (alkaline phosphatase; polymer SAPPHIRE, 5 min)?
**A.** The SIGNAL was 51584.5.

**Q.** And the S/N (alkaline phosphatase; polymer SAPPHIRE, 20 min)?
**A.** Its S/N is 505.4.

**Q.** What about the SIGNAL (alkaline phosphatase; polymer SAPPHIRE, 20 min) of the same compound?
**A.** The SIGNAL was 70161.6.

**Q.** What about the S/N (alkaline phosphatase; polymer SAPPHIRE, time 0) of the same compound?
**A.** The S/N was 1.0.

**Q.** What about the SIGNAL (alkaline phosphatase; polymer TBQ-FLUOR (TBQ and fluorescein), time 0 (background, before enzyme)) of the same compound?
**A.** Its SIGNAL is 5882.7.

**Q.** What about the S/N (alkaline phosphatase; polymer TBQ-FLUOR, 5 min) of the same compound?
**A.** The S/N was 839.4.

**Q.** What about the SIGNAL (alkaline phosphatase; polymer TBQ-FLUOR, 5 min) of the same compound?
**A.** The SIGNAL was 987572.0.

**Q.** And the S/N (alkaline phosphatase; polymer TBQ-FLUOR, 20 min)?
**A.** The S/N was 1280.0.

**Q.** And the SIGNAL (alkaline phosphatase; polymer TBQ-FLUOR, 20 min)?
**A.** Its SIGNAL is 1505971.2.

**Q.** What about the S/N (alkaline phosphatase; polymer TBQ-FLUOR, time 0) of the same compound?
**A.** The S/N was 1.0.

**Q.** And the S/N (alkaline phosphatase; polymer TBQ, 5 min)?
**A.** The S/N was 1249.6.

**Q.** What about the SIGNAL (alkaline phosphatase; polymer TBQ, 5 min) of the same compound?
**A.** The SIGNAL was 148394.6.

**Q.** What about the S/N (alkaline phosphatase; polymer TBQ, 20 min) of the same compound?
**A.** Its S/N is 1763.9.

**Q.** What about the SIGNAL (alkaline phosphatase; polymer TBQ, 20 min) of the same compound?
**A.** Its SIGNAL is 209466.8.

**Q.** What about the S/N (alkaline phosphatase; polymer TBQ, time 0) of the same compound?
**A.** The S/N was 1.0.

**Q.** What about the SIGNAL (alkaline phosphatase; polymer TBQ, time 0 (background, before enzyme)) of the same compound?
**A.** Its SIGNAL is 118.8.

**Q.** And the S/N (alkaline phosphatase; polymer TEQ, 5 min)?
**A.** The S/N was 397.0.

**Q.** What about the SIGNAL (alkaline phosphatase; polymer TEQ, 5 min) of the same compound?
**A.** The SIGNAL was 26551.0.

**Q.** What about the S/N (alkaline phosphatase; polymer TEQ, 20 min) of the same compound?
**A.** The S/N was 513.5.

**Q.** And the SIGNAL (alkaline phosphatase; polymer TEQ, 20 min)?
**A.** Its SIGNAL is 34467.2.

**Q.** And the S/N (alkaline phosphatase; polymer TEQ, time 0)?
**A.** Its S/N is 1.0.

**Q.** What about the SIGNAL (alkaline phosphatase; polymer TEQ, time 0 (background, before enzyme)) of the same compound?
**A.** Its SIGNAL is 67.1.

**Q.** And the S/N (alkaline phosphatase; polymer TMQ, 5 min)?
**A.** Its S/N is 165.0.

**Q.** What about the SIGNAL (alkaline phosphatase; polymer TMQ, 5 min) of the same compound?
**A.** Its SIGNAL is 9941.0.

**Q.** And the S/N (alkaline phosphatase; polymer TMQ, 20 min)?
**A.** The S/N was 226.4.

**Q.** What about the SIGNAL (alkaline phosphatase; polymer TMQ, 20 min) of the same compound?
**A.** The SIGNAL was 13640.5.

**Q.** And the S/N (alkaline phosphatase; polymer TMQ, time 0)?
**A.** The S/N was 1.0.

**Q.** And the SIGNAL (alkaline phosphatase; polymer TMQ, time 0 (background, before enzyme))?
**A.** Its SIGNAL is 50.3.

— patent US5326882A, “Chemiluminescent 3-(substituted Adamant-2'-Ylidene) 1,2-dioxetanes” (Tropix, Inc., priority 1992, dated 1994)
